From paper PMC6508677, “Identification of druggable small molecule antagonists of the Plasmodium falciparum hexose transporter PfHT and assessment of ligand access to the glucose permeation pathway via FLAG-mediated protein engineering” (PLoS ONE, 2019)
Values joined by “and” are separate entries in the source; they are usually repeats but may differ in a detail not shown here. Identical values can stand only once. Like-named read-outs stand apart in the source and are kept apart here.

Assays:
hGLUT8 = molecular target: T1, hGLUT8 (Homo sapiens, UniProt Q9NY64, E7R/E8R); assay: [3H]-D-fructose uptake by HEK293 cells overexpressing hGLUT8; assay type: cell-based
T1 construct: expressed in transfected cells; host or cells: HEK293 (HEK293-FLIP, native hGLUT1 knocked down)
T1 sequence (Q9NY64 1-477 E7R/E8R): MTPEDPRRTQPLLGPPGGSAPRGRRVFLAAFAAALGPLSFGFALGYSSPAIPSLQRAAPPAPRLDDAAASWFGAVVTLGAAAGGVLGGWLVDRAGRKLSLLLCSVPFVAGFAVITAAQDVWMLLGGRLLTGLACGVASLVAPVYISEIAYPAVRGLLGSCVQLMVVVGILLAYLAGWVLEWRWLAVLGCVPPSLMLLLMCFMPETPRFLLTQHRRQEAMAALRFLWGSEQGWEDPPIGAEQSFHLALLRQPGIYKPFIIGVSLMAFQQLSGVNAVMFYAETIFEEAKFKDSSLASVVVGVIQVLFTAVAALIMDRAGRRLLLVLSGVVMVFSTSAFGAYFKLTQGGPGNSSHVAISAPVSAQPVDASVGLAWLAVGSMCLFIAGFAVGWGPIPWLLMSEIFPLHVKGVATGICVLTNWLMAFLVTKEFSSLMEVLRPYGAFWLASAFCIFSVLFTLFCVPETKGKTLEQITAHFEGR
Excerpt: Generation of HEK293 cells overexpressing PfHT and human GLUTs 1–4 were described elsewhere. Briefly, HEK293 cells were transfected with pcDNA3.1 FLII12Pglu-7006 (Addgene), containing the fluorescence resonance energy transfer (FRET) glucose sensor (HEK293-FLIP) and PfHT, human GLUT1 (hGLUT1), hGLUT2, hGLUT3, hGLUT4, hGLUT5 or hGLUT8 using Optifect (Life Technologies) according to manufacturer’s specifications. To increase retention of GLUT8 at the plasma membrane, the dileucine sorting signal E^7E^8XXXLL was modified to R^7R^8XXXLL as described in [17]. Stable transfectants were selected for G418 and hygromycin resistance to select for FRET sensor and hexose transporter, respectively. HEK293-FLIP cells were also used to generate cells stably transfected with FLAG-tagged PfHT (FTPfHT). FLAG tag ([…]) followed by a triple glycine linker and a tobacco etch virus (TEV) protease site (ENLYFQS) followed by a triple glycine linker was added to the N-terminus of PfHT via PCR [18] using Phusion Hot Start II High-Fidelity DNA Polymerase (Fisher Scientific). Single clones were selected by comparing their abilities to transport glucose as assayed via FRET and radiolabeled hexose uptake. In all cell lines, except for HEK293 cells overexpressing hGLUT1 and hGLUT5, native hGLUT1 was knocked down using shRNA as described elsewhere. Transcript levels of the individual GLUTs expressed in each cell line are as described in [13, 15] and in S1 Fig.
(§1) Glucose uptake by P. falciparum was performed essentially as described. P. falciparum strain 3D7 was cultured in 100 mm tissue culture dishes (Techno Plastic Products) in a 2% suspension of human erythrocytes and RPMI 1640 medium until reaching > 7.5% parasitemia. Cells were pelleted via centrifugation and resuspended in RPMI 1640 medium. To determine the uptake of radiolabeled glucose into the parasite, parasites were isolated from infected erythrocytes by permeablization with saponin (0.05 w/v), followed by centrifugation, aspiration of supernatant and washing of the pellet 3X with saline solution (135 mM NaCl, 2 mM KCl, 25 mM HEPES, 0.2 mM glucose and 1 mM MgCl2; pH 7.1) to remove cellular debris. WU-1 or DMSO vehicle were added to 100 μl parasites (resuspended in saline) 5 min prior to the addition of 100 μl [^14C]2-DOG (0.2- μCi/ml final concentration). 2-DG uptake was stopped after 2 min by layering the entire reaction over 300 μl of an oil mixture (5:4 mix of dibutyl phthalate / dinonyl phthalate) in Eppendorf tubes and centrifuged at 15,850 × g for 2 mins. The ratio of the estimated intracellular concentration of radiolabel relative to the extracellular concentration were calculated as described. Uptake of radiolabeled hexose into HEK293 cells was measured in glucose-free HBSS as described previously. Briefly, cells were plated at 400,000 cells/well overnight at 37°C in 24-well plates pre-treated with PEI. After 30-min incubation at 37°C in glucose-free HBSS in the presence of vehicle or increasing concentrations of compound, 2-DG uptake was measured in glucose-free HBSS for 4 min at 37°C. Cultures were washed in ice-cold 1X PBS and lysed in 0.1% Triton X-100 in 1X PBS. Radiolabeled hexose uptake was determined by liquid scintillation counting (Ultima Gold, Thermo Fisher) and normalized to total protein per well. Uptake data are plotted as percent uptake relative to vehicle-treated cells. Kinetic analyses were performed using the indicated concentrations of substrate and WU-1, with quenching of uptake after 1 min incubation. Incubation times had been previously determined as being in the linear range of time-dependent radiolabeled hexose uptake (2 min for 2-DG uptake into freed parasites; 2 and 4 min for D-Frc and 2-DG uptake HEK cell lines, respectively). Data were fit by least squares nonlinear regression analysis using GraphPad Prism 6.0 software.

[1] = tested on: P. falciparum strain 3D7 freed parasites; assay: 2-DG uptake by isolated freed P. falciparum parasites; assay type: cell-based, Plasmodium falciparum
Protocol: as §1

[2] = HEK293, 2 min, read-out: D-frc Uptake AVE

## Cc1ccc(S(=O)(=O)CCNC(=O)c2c(-c3c(Cl)cccc3Cl)noc2C)cc1 [WU-1, 3-(2,6-dichlorophenyl)-5-methyl-N-[2-(4-methylbenzenesulfonyl)ethyl]-1,2-oxazole-4-carboxamide]
hGLUT8; GLUT8, D-frc Uptake, average of Expt 1-3, read-out: AVE IC50
  IC50: 22 µM
hGLUT8; GLUT8, D-frc Uptake, single experiments Expt 1-3, read-out: IC50
  IC50: 23.3 µM and 19.7 µM and 23.1 µM
hGLUT8; GLUT8 cell line, read-out: IC50, D-fructose (Frc) uptake
  IC50: 22 ± 1.2 µM
hGLUT8; HEK293, 2 min, GLUT8, concentration 0.001 µM, Expt 1-3, read-out: D-frc Uptake AVE
  remaining activity at 0.001 µM: 100%
hGLUT8; HEK293, 2 min, GLUT8, concentration 0.313 µM, read-out: D-frc Uptake AVE
  remaining activity at 0.313 µM: 96.4%
hGLUT8; HEK293, 2 min, GLUT8, concentration 0.625 µM, read-out: D-frc Uptake AVE
  remaining activity at 0.625 µM: 90%
hGLUT8; HEK293, 2 min, GLUT8, concentration 1.250 µM, read-out: D-frc Uptake AVE
  remaining activity at 1.25 µM: 89.1%
hGLUT8; HEK293, 2 min, GLUT8, concentration 2.500 µM, read-out: D-frc Uptake AVE
  remaining activity at 2.5 µM: 86%
hGLUT8; HEK293, 2 min, GLUT8, concentration 5.0 µM, read-out: D-frc Uptake AVE
  remaining activity at 5 µM: 78.5%
hGLUT8; HEK293, 2 min, GLUT8, concentration 10.0 µM, read-out: D-frc Uptake AVE
  remaining activity at 10 µM: 71.4%
hGLUT8; HEK293, 2 min, GLUT8, concentration 20 µM, read-out: D-frc Uptake AVE
  remaining activity at 20 µM: 53%
hGLUT8; HEK293, 2 min, GLUT8, concentration 40 µM, read-out: D-frc Uptake AVE
  remaining activity at 40 µM: 46.1%
hGLUT8; HEK293, 2 min, GLUT8, concentration 80 µM, read-out: D-frc Uptake AVE
  remaining activity at 80 µM: 30.5%
hGLUT8; HEK293, 2 min, GLUT8, concentration 160 µM, read-out: D-frc Uptake AVE
  remaining activity at 160 µM: 24.8%
hGLUT8; HEK293, 2 min, GLUT8, concentration 225 µM, read-out: D-frc Uptake AVE
  remaining activity at 225 µM: 22.6%
hGLUT8; [2]
  remaining activity at 0.625 µM: 91.6%
  remaining activity at 2.5 µM: 84.6%
hGLUT8; calculated from IC50s
  Selectivity Index (PfHT over GLUT8), Frc: 4.4
[1]; 0.001 µM WU-1
  2-DG uptake by freed parasites (normalised to 100), AVE per experiment: 100.00
[1]; 8.33 µM WU-1
  2-DG uptake by freed parasites (normalised to 100), AVE per experiment: 54.38 and 56.80 and 54.68
[1]; 25 µM WU-1
  2-DG uptake by freed parasites (normalised to 100), AVE per experiment: 40.52 and 37.08 and 35.20
[1]; 75 µM WU-1
  2-DG uptake by freed parasites (normalised to 100), AVE per experiment: 20.23 and 31.42 and 24.43
[1]; 225 µM WU-1
  2-DG uptake by freed parasites (normalised to 100), AVE per experiment: 17.01 and 18.91 and 19.76
[1]; Expt 1-3, read-out: IC50 for 2-DG uptake by freed parasites, individual experiments
  IC50: 6.6 µM and 4.5 µM
[1]; Plasmodium falciparum, 3D7, Expt 1-3, read-out: IC50 for 2-DG uptake by freed parasites, individual experiments
  IC50: 7.2 µM
[1]; Plasmodium falciparum, 3D7, isolated P. falciparum trophozoites, mean, read-out: IC50 for 2-DG uptake by freed parasites
  IC50: 6.1 ± 0.8 µM
